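Dose response: 5 concentrations. Exposure: 48 h. Format: 96-well plates. Endpoint: linear interpolation; highest concentration if not reached. TGI is the concentration that stops growth completely.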
Tests used:
Experiment in all cases: NCI tumour cell line growth inhibition, 48 h
786-0 renal = system: 786-0 renal
A498 renal = system: A498 renal
A549 NSCLC = system: A549 NSCLC
ACHN renal = system: ACHN renal
BT-549 breast = system: BT-549 breast
CAKI-1 renal = system: CAKI-1 renal
CCRF-CEM leukemia = system: CCRF-CEM leukemia
COLO 205 colon = system: COLO 205 colon
DLD-1 colon = system: DLD-1 colon
DMS 114 small cell lung = system: DMS 114 small cell lung
DMS 273 small cell lung = system: DMS 273 small cell lung
DU-145 prostate = system: DU-145 prostate
EKVX NSCLC = system: EKVX NSCLC
HCC-2998 colon = system: HCC-2998 colon
HCT-116 colon = system: HCT-116 colon
HCT-15 colon = system: HCT-15 colon
HL-60(TB) leukemia = system: HL-60(TB) leukemia
HOP-18 NSCLC = system: HOP-18 NSCLC
HOP-62 NSCLC = system: HOP-62 NSCLC
HOP-92 NSCLC = system: HOP-92 NSCLC
HS 578T breast = system: HS 578T breast
HT29 colon = system: HT29 colon
IGROV1 ovarian = system: IGROV1 ovarian
K-562 leukemia = system: K-562 leukemia
KM12 colon = system: KM12 colon
KM20L2 colon = system: KM20L2 colon
LOX IMVI melanoma = system: LOX IMVI melanoma
M14 melanoma = system: M14 melanoma
M19-MEL melanoma = system: M19-MEL melanoma
MALME-3M melanoma = system: MALME-3M melanoma
MCF7 breast = system: MCF7 breast
MDA-MB-231 breast = system: MDA-MB-231 breast
MDA-MB-435 = system: MDA-MB-435
MDA-N = system: MDA-N
MOLT-4 leukemia = system: MOLT-4 leukemia
NCI-H226 lung = system: NCI-H226 lung
NCI-H23 lung = system: NCI-H23 lung
NCI-H460 lung = system: NCI-H460 lung
NCI-H522 lung = system: NCI-H522 lung
NCI/ADR-RES ovarian = system: NCI/ADR-RES ovarian
OVCAR-3 ovarian = system: OVCAR-3 ovarian
OVCAR-4 ovarian = system: OVCAR-4 ovarian
OVCAR-5 ovarian = system: OVCAR-5 ovarian
OVCAR-8 ovarian = system: OVCAR-8 ovarian
P388 leukemia = system: P388 leukemia
P388/ADR leukemia = system: P388/ADR leukemia
PC-3 prostate = system: PC-3 prostate
RPMI-8226 leukemia = system: RPMI-8226 leukemia
RXF 393 renal = system: RXF 393 renal
SF-268 CNS = system: SF-268 CNS
SF-295 CNS = system: SF-295 CNS
SF-539 CNS = system: SF-539 CNS
SK-MEL-2 melanoma = system: SK-MEL-2 melanoma
SK-MEL-28 melanoma = system: SK-MEL-28 melanoma
SK-MEL-5 melanoma = system: SK-MEL-5 melanoma
SK-OV-3 ovarian = system: SK-OV-3 ovarian
SN12C renal = system: SN12C renal
SN12K1 renal = system: SN12K1 renal
SNB-19 CNS = system: SNB-19 CNS
SNB-75 CNS = system: SNB-75 CNS
SNB-78 CNS = system: SNB-78 CNS
SR leukemia = system: SR leukemia
SW-620 colon = system: SW-620 colon
T-47D breast = system: T-47D breast
TK-10 renal = system: TK-10 renal
U251 CNS = system: U251 CNS
UACC-257 melanoma = system: UACC-257 melanoma
UACC-62 melanoma = system: UACC-62 melanoma
UO-31 renal = system: UO-31 renal
XF 498 CNS = system: XF 498 CNS
LXFL 529 NSCLC = system: LXFL 529 NSCLC
RXF-631 renal = system: RXF-631 renal

CC(=O)NCCCCCCNC(C)=O
TGI (786-0 renal): > 10000 µM
TGI (A498 renal): > 9690 µM
TGI (A549 NSCLC): > 9660 µM
TGI (ACHN renal): > 10000 µM
TGI (BT-549 breast): > 10000 µM
TGI (CAKI-1 renal): > 10000 µM
TGI (CCRF-CEM leukemia): > 10000 µM
TGI (COLO 205 colon): > 10000 µM
TGI (DLD-1 colon): > 10000 µM
TGI (DMS 114 small cell lung): > 10000 µM
TGI (DMS 273 small cell lung): 7250 µM
TGI (DU-145 prostate): > 10000 µM
TGI (EKVX NSCLC): > 10000 µM
TGI (HCC-2998 colon): > 8610 µM
TGI (HCT-116 colon): > 10000 µM
TGI (HCT-15 colon): > 10000 µM
TGI (HL-60(TB) leukemia): 9000 µM
TGI (HOP-18 NSCLC): > 10000 µM
TGI (HOP-62 NSCLC): > 10000 µM
TGI (HOP-92 NSCLC): > 6730 µM
TGI (HS 578T breast): > 10000 µM
TGI (HT29 colon): > 10000 µM
TGI (IGROV1 ovarian): > 10000 µM
TGI (K-562 leukemia): > 10000 µM
TGI (KM12 colon): > 10000 µM
TGI (KM20L2 colon): > 10000 µM
TGI (LOX IMVI melanoma): > 10000 µM
TGI (M14 melanoma): > 10000 µM
TGI (M19-MEL melanoma): > 10000 µM
TGI (MALME-3M melanoma): 7700 µM
TGI (MCF7 breast): > 9380 µM
TGI (MDA-MB-231 breast): > 5620 µM
TGI (MDA-MB-435): > 10000 µM
TGI (MDA-N): > 10000 µM
TGI (MOLT-4 leukemia): > 10000 µM
TGI (NCI-H226 lung): > 10000 µM
TGI (NCI-H23 lung): > 10000 µM
TGI (NCI-H460 lung): > 7500 µM
TGI (NCI-H522 lung): 9120 µM
TGI (NCI/ADR-RES ovarian): > 10000 µM
TGI (OVCAR-3 ovarian): 9840 µM
TGI (OVCAR-4 ovarian): > 9590 µM
TGI (OVCAR-5 ovarian): > 10000 µM
TGI (OVCAR-8 ovarian): > 10000 µM
TGI (P388 leukemia): > 10000 µM
TGI (P388/ADR leukemia): > 10000 µM
TGI (PC-3 prostate): > 10000 µM
TGI (RPMI-8226 leukemia): > 10000 µM
TGI (RXF 393 renal): > 10000 µM
TGI (SF-268 CNS): > 10000 µM
TGI (SF-295 CNS): > 10000 µM
TGI (SF-539 CNS): > 10000 µM
TGI (SK-MEL-2 melanoma): > 10000 µM
TGI (SK-MEL-28 melanoma): > 10000 µM
TGI (SK-MEL-5 melanoma): > 10000 µM
TGI (SK-OV-3 ovarian): > 10000 µM
TGI (SN12C renal): > 10000 µM
TGI (SN12K1 renal): > 10000 µM
TGI (SNB-19 CNS): > 10000 µM
TGI (SNB-75 CNS): 8830 µM
TGI (SNB-78 CNS): > 10000 µM
TGI (SR leukemia): > 10000 µM
TGI (SW-620 colon): > 10000 µM
TGI (T-47D breast): > 10000 µM
TGI (TK-10 renal): > 10000 µM
TGI (U251 CNS): > 10000 µM
TGI (UACC-257 melanoma): > 10000 µM
TGI (UACC-62 melanoma): 9870 µM
TGI (UO-31 renal): > 10000 µM
TGI (XF 498 CNS): 8380 µM

C=C1CC2(OC1=O)c1ccccc1C=Cc1ccccc12
TGI (786-0 renal): 6.16 µM
TGI (A498 renal): 25 µM
TGI (A549 NSCLC): 23.3 µM
TGI (ACHN renal): 9.83 µM
TGI (BT-549 breast): 3.61 µM
TGI (CAKI-1 renal): 6.08 µM
TGI (CCRF-CEM leukemia): 6.58 µM
TGI (COLO 205 colon): 5.82 µM
TGI (DLD-1 colon): 3.76 µM
TGI (DMS 114 small cell lung): 21 µM
TGI (DMS 273 small cell lung): 28.2 µM
TGI (DU-145 prostate): 23.6 µM
TGI (EKVX NSCLC): 18.3 µM
TGI (HCC-2998 colon): 13.5 µM
TGI (HCT-116 colon): 5.4 µM
TGI (HCT-15 colon): 7.77 µM
TGI (HL-60(TB) leukemia): 4.86 µM
TGI (HOP-18 NSCLC): 27.4 µM
TGI (HOP-62 NSCLC): 24.9 µM
TGI (HOP-92 NSCLC): 3.44 µM
TGI (HS 578T breast): 6.29 µM
TGI (HT29 colon): 6.8 µM
TGI (IGROV1 ovarian): 15.9 µM
TGI (K-562 leukemia): 10.7 µM
TGI (KM12 colon): 12.3 µM
TGI (KM20L2 colon): 20.5 µM
TGI (LOX IMVI melanoma): 4.1 µM
TGI (LXFL 529 NSCLC): 7.14 µM
TGI (M14 melanoma): 10 µM
TGI (M19-MEL melanoma): 11.8 µM
TGI (MALME-3M melanoma): 9.71 µM
TGI (MCF7 breast): 6.54 µM
TGI (MDA-MB-231 breast): 5.41 µM
TGI (MDA-MB-435): 3.37 µM
TGI (MDA-N): 4.47 µM
TGI (MOLT-4 leukemia): 5.4 µM
TGI (NCI-H226 lung): 11.2 µM
TGI (NCI-H23 lung): 14.7 µM
TGI (NCI-H460 lung): 25.4 µM
TGI (NCI-H522 lung): 3.35 µM
TGI (NCI/ADR-RES ovarian): 3.06 µM
TGI (OVCAR-3 ovarian): 8.9 µM
TGI (OVCAR-4 ovarian): 11.7 µM
TGI (OVCAR-5 ovarian): 22.5 µM
TGI (OVCAR-8 ovarian): 11.7 µM
TGI (PC-3 prostate): 16.3 µM
TGI (RPMI-8226 leukemia): 8.68 µM
TGI (RXF 393 renal): 8.12 µM
TGI (RXF-631 renal): 33.1 µM
TGI (SF-268 CNS): 17.4 µM
TGI (SF-295 CNS): 32.1 µM
TGI (SF-539 CNS): 6.72 µM
TGI (SK-MEL-2 melanoma): 16.5 µM
TGI (SK-MEL-28 melanoma): 9.32 µM
TGI (SK-MEL-5 melanoma): 16.4 µM
TGI (SK-OV-3 ovarian): 30.8 µM
TGI (SN12C renal): 7.14 µM
TGI (SNB-19 CNS): 29.9 µM
TGI (SNB-75 CNS): 20.2 µM
TGI (SNB-78 CNS): 9.3 µM
TGI (SR leukemia): 9.17 µM
TGI (SW-620 colon): 4.54 µM
TGI (T-47D breast): 4.37 µM
TGI (TK-10 renal): 11.1 µM
TGI (U251 CNS): 15.5 µM
TGI (UACC-257 melanoma): 10.2 µM
TGI (UACC-62 melanoma): 9.96 µM
TGI (UO-31 renal): 15.7 µM
TGI (XF 498 CNS): 26.5 µM
